In patent US20070009544A1, “Anti-allergic complex molecules” (priority 1999, published 2007):
In brackets after ≈: the same amount, converted by molar mass. Entries after “also recorded” stand apart in the source; their conditions may differ. Marks after values point to notes of the source that are not given here. Numbered stars: 1 amine (or outer) side, 2 acyl side, 3 side chain; on linkers, the order of the positions; unused ones are H or OH. Ends that are not written are not given here. Peptide text beside a SMILES is read from it. Suc = O=C(CCC(=O)[*:2])[*:1]

What was measured:
[1] = system: abdominal skin of C.R rats; experiment: Rat skin test: intradermal injection of peptide, then intradermal compound 48/80 or vehicle, wheal area; assay type: in vivo; conditions: for Mean wheal size, compound 48/80-induced cutaneous reaction: Fenistil Gel 100 mg t.a., Cromoglycate 20 mg/ml i.d., Peptide 2 10 mg/ml i.d.
Experimental: (§1) The hair of the abdominal area of C.R rats was carefully removed with an electric clipper and a depilatory cream. In each animal the abdominal area was divided to six equal zones that were marked by pen. Each zone was either subjected to peptide treatment or served as a control. In the first set of experiments, the peptide was topically applied as follows: 36 μl of peptide solution at the indicated concentration (dissolved in 72% DMSO in saline) was applied on desired abdominal area. In the second set of experiments, the peptide was injected intradermally as follows: 20 μl of peptide solution at different concentrations (dissolved in 10% DMSO in saline) was injected intradermally to an indicated abdominal area using a 27-gauge sterile needle.
(§2) Skin tests were performed 0.5, 1 or 2 hours following application of the peptide. Skin tests were performed by injecting intradermally 20 μl of the allergen (0.1 mg/ml compound 48/80 dissolved in saline) or saline alone, into the center of each marked area on the abdominal skin using a 27-gauge sterile needle. The allergic response was monitored by outlining with a marker the wheals which developed in response to allergen or saline treatment.
(§3) To quantitate the skin test results, the marker signs were transferred onto paper with scotch tape. The areas of the wheals were outlined and calculated by a computerized planimeter (Hewlett-Packard), as previously described (Sussman et al., 1982).
Tables 10-16 presents the mean areas of the wheals, which developed in response to intradermal injection of each of the tested peptides, followed by either compound 48/80 or DDW injection applied after 0.5 or 1 hour. Two doses were tested for each peptide-20 and 200 μg (injection of 20 μl from a stock solution of 1 mg/ml or 10 mg/m respectively).
Skin tests on rats using compound 48/80 as the allergen assessed the ability of the peptides of the present invention to block allergic cutaneous reactions. The abdominal skin of the rats was subjected to peptide (indicated concentrations are listed in Tables 17A-17B below) or vehicle treatment (intradermal injection); the allergic response was induced by intradermal injection of compound 48/80 at various times; and the allergic response was quantified by calculating the area of the resultant allergic wheals.

[2] = system: mice; experiment: IgE-independent mouse conjunctivitis induced by compound 48/80, clinical score; assay type: in vivo; parameters: scale not given here
Experimental: A murine model was chosen as an in vivo model of IgE-independent human conjunctivitis, induced by a basic secretagogue.
Six groups of mice were topically treated as described in Table 19. The first application was installed 4 times (24 hours, 21 hours, 18 hours and 30 minutes) prior to the second application.
Clinical evaluation of allergic conjunctivitis was conducted in a blind fashion by determining the extent and intensity of lid edema, chemosis, erythema and tearing.

[3] = system: purified rat peritoneal mast cells; experiment: Histamine secretion from intact mast cells incubated with peptide alone (secretagogue side effect); conditions: for Secretagogue (histamine secretion following incubation of mast cell with different concentrations of each peptide): no allergen; for histamine secretion from mast cells on incubation with increasing concentrations of peptide alone: no additional allergen
Experimental: Mast cells from the peritoneal cavity of C.R rats were isolated in Tyrode buffer (137 mM NaCl, 2.7 mM KC1, 1 mM MgCl2, 0.4 mM NaH2PO4, 20 mM Hepes, 1.0 mM CaCl2, 5.6 mM glucose, 1 mg/ml BSA, pH 7.2) and purified over a Ficoll gradient. A suspension of washed peritoneal cells was placed over a cushion of 30% Ficoll 400 (Pharmacia Biotech.) in buffered Saline containing 0.1% BSA; and centrifuged at 150O×g for 15 min. The purity of mast cells recovered from the bottom of the tube was >90%, as assessed by toluidine blue staining.
Purified mast cells (duplicated of 10^5 cells/0.5 ml) were incubated in Tyrode buffer with buffer or with desired concentrations of the indicated peptide for 2 h. at. 37° C. Histamine secretion was subsequently stimulated by the indicated concentration of compound 48/80 (Sigma) dissolved in Tyrode buffer. Incubation with compound 48/80 was carried out for 20 mm.in at 37° C. The reaction was terminated by placing the tubes on ice. The cells were sedimented by centrifugation at 150×g for 5 mm.in and the supernatants were collected. The amount of histamine release was determined as previously described (Aridor et al., 1990). Briefly, cell pellets were lysed using 0.1N NaOH and the volume of each sample was adjusted to 0.5 ml by H2O. Histamine content was assayed using the o-phtalaldehyde (OPT) fluorimetric method (Shore et al., 1959). Aliquots of 0.4 ml from the supernatants and cell lysates were incubated with 1.6 ml H20, 0.4 ml 1N NaOH and 0.1 ml of 10 mg/l ml OPT in methanol, for 4 min at room temperature. The reaction was terminated by the addition of 0.2 ml 3N HCl. Samples were centrifuged at 150×g for 5 min. and 0.2 ml samples were transferred to a 96 well plate. The histamine spectrofluorometric assay was run in microplates using a microplates reader (FL-600, Biotek instruments Winooski, Vt., USA). Samples were excited by light at 340 nm and read at 440 nm. Histamine release was calculated as the percentage of total histamine content (supernatant/pellet+supernatant) in each sample. Each data point represents the average of duplicate measurements. The spontaneously released histamine was subtracted.

[4] = system: purified rat peritoneal mast cells; assay type: cell-based
Experimental: 37° C. […] Each data point represents the average of duplicate measurements. The spontaneously released histamine was subtracted.
First, the effect of compound 48/80 on exocytosis from intact mast cells was determined. […] Histamine release was determined and is presented as the net secretion that is % of the total cellular histamine following subtraction of the spontaneously released histamine. Half-maximal release was obtained at 0.1 μg/ml while maximal release was obtained at 1-10 μg/ml. Accordingly, in order to analyze the potential of each peptide to block histamine secretion, histamine secretion was induced with 5 μg/ml compound 48/80, a concentration that induces a maximal histamine release, while the cells were incubated in the presence of increasing concentrations of each peptide.
In order to investigate the ability of these peptides to block allergen-induced exocytosis, the peptides were examined for their ability to block compound 48/80 induced histamine secretion from intact mast cells in vitro. Mast cells were incubated with different concentrations of each peptide, followed by induction of histamine secretion by compound 48/80.

[5] = system: abdominal skin of C.R rats; experiment: Rat skin test: topical application of peptide, then intradermal compound 48/80 or saline, wheal area; assay type: in vivo
Experimental: as §1, §2, §3

[6] = drug 24, 21, 18 hrs and 30 min before compound 48/80, Cromoglycate 2%, Dexamethazone 0.1%, Peptide 2 2%, no treatment 2.0
[7] = drug before compound 48/80, no treatment 0.8
[8] = drug before compound 48/80, no treatment 2.3
[9] = drug before compound 48/80, no treatment 2.5
[10] = drug before compound 48/80, no treatment 7.6
[11] = intradermal peptide 1 mg/ml, 0.5 hour before, vehicle instead of compound 48/80
[12] = intradermal peptide 1 mg/ml, 1 hour before, vehicle instead of compound 48/80
[13] = intradermal peptide 10 mg/ml, 0.5 hour before, vehicle instead of compound 48/80
[14] = intradermal peptide 10 mg/ml, 1 hour before, vehicle instead of compound 48/80
[15] = drug 2% followed by vehicle, no compound 48/80

## O=C(O)c1cc(=O)c2c(OCC(O)COc3cccc4oc(C(=O)O)cc(=O)c34)cccc2o1 [Cromoglycate]
[1]; 0.5 hour incubation, Ceterizine 0.01 mg/ml i.d., no treatment 115.5 ± 30.4
  Mean wheal size, compound 48/80-induced cutaneous reaction: 76.2 ± 17.5 mm^2
[1]; 1 hour incubation, no treatment 123.3 ± 33.9
  Mean wheal size, compound 48/80-induced cutaneous reaction: 91.5 ± 12.6 mm^2
[2]; [6]
  Average Score, Chemosis: 0.5
[2]; [7]
  Average Score, Erythema: 0.5
[2]; [8]
  Average Score, Tearing: 1.9
[2]; [9]
  Average Score, Lid edema: 1.1
[2]; [10]
  Average Score, Total score: 4.0

## C[C@@H]1C[C@H]2[C@@H]3CCC4=CC(=O)C=C[C@]4(C)[C@@]3(F)[C@@H](O)C[C@]2(C)[C@@]1(O)C(=O)CO [Dexamethazone]
[2]; [6]
  Average Score, Chemosis: 0
[2]; [7]
  Average Score, Erythema: 0.6
[2]; [8]
  Average Score, Tearing: 1.0
[2]; [9]
  Average Score, Lid edema: 0
[2]; [10]
  Average Score, Total score: 1.6

## CC(C)C[C@H](NC(=O)CNC(=O)[C@@H](NC(=O)[C@H](CCC(=O)O)NC(=O)[C@H](CCCCN)NC(=O)[C@H](CC(C)C)NC(=O)[C@H](CC(N)=O)NC(=O)[C@H](CC(N)=O)NC(=O)[C@H](CCCCN)NC(=O)[C@@H]1CCCN1C(=O)[C@H](C)NC(=O)[C@H](CC(C)C)NC(=O)[C@H](CC(C)C)NC(=O)[C@H](C)NC(=O)[C@H](CC(C)C)NC(=O)[C@H](CC(C)C)NC(=O)[C@@H](NC(=O)[C@H](C)NC(=O)[C@@H]1CCCN1C(=O)[C@H](CC(C)C)NC(=O)[C@H](CC(C)C)NC(=O)[C@H](C)NC(=O)[C@@H](NC(=O)[C@H](C)NC(=O)[C@H](C)NC(=O)CCC(=O)O)C(C)C)C(C)C)C(C)C)C(=O)N[C@@H](Cc1ccc(O)cc1)C(=O)O [WALL016] (Suc-AAVALLPAVLLALLAPKNNLKEVGLY-OH; C-terminus assumed)
[1]; intradermal peptide
  block of compound 48/80 induced allergic reaction in vivo, rat skin: effectively block the allergic response in vivo
[1]; intradermal peptide 1 mg/ml, 0.5 hour before allergic induction
  Mean Wheal Area ± STD, Compound 48/80: 104.2 ± 21.6 (n = 5) mm^2
[1]; [11]
  Mean Wheal Area ± STD, Vehicle: 66.4 ± 12.5 (n = 5) mm^2
[1]; intradermal peptide 1 mg/ml, 1 hour before allergic induction
  Mean Wheal Area ± STD, Compound 48/80: 96.3 ± 15.6 (n = 6) mm^2
[1]; [12]
  Mean Wheal Area ± STD, Vehicle: 62.8 ± 14.6 (n = 6) mm^2
[1]; intradermal peptide 10 mg/ml, 0.5 hour before allergic induction
  Mean Wheal Area ± STD, Compound 48/80: 81.2 ± 7.9 (n = 5) mm^2
[1]; [13]
  Mean Wheal Area ± STD, Vehicle: 72.6 ± 16.2 (n = 5) mm^2
[1]; intradermal peptide 10 mg/ml, 1 hour before allergic induction
  Mean Wheal Area ± STD, Compound 48/80: 82.1 ± 27.2 (n = 6) mm^2
[1]; [14]
  Mean Wheal Area ± STD, Vehicle: 69.3 ± 17.0 (n = 6) mm^2
[1]; intradermal peptide 0.5 or 1 hour before allergic induction
  reduction of compound 48/80 induced allergic reaction: significant inhibition
[3]; Table 9, peptide alone
  Secretagogue (histamine secretion following incubation of mast cell with different concentrations of each peptide): −
[3]
  histamine secretion from mast cells on incubation with increasing concentrations of peptide alone: did not result in histamine secretion
[3]; peptide alone, increasing concentrations
  basal level of histamine secretion compared to control cells: inhibition of the basal histamine secretion
[4]
  IC50, compound 48/80 induced histamine secretion: 295 µg/mL (≈ 106 µM)
[4]; 600 μg/ml peptide, compound 48/80 concentration not given
  maximal inhibition of compound 48/80 induced histamine secretion: 79.6%
[4]; Table 9, incubation with different concentrations of each peptide, then induction of the allergic reaction
  Inhibitor (extent of inhibition of histamine secretion from mast cells): ++ (++ Moderate inhibitor (50%-70% inhibition))

## AAVALLPAVLLALLAPKNNLKECGLY [Peptide 2]
[1]; Tables 17A-B, column head '0.1' (no unit), 0.5 hr prior to allergy induction
  Mean Wheal Area ± STD, Vehicle: 57.0 ± 8.3 (n = 12) mm^2
[1]; Tables 17A-B, column head '0.1' (no unit), 1 hour prior
  Mean Wheal Area ± STD, Vehicle: 56.2 ± 11.3 (n = 5) mm^2
[1]; Tables 17A-B, column head '1' (no unit), 0.5 hr prior
  Mean Wheal Area ± STD, Vehicle: 61.7 ± 13.5 (n = 19) mm^2
[1]; Tables 17A-B, column head '1' (no unit), 1 hour prior
  Mean Wheal Area ± STD, Vehicle: 50.6 ± 7.4 (n = 5) mm^2
[1]; intradermal 1 mg/ml, Animal A, 0.5 hour
  Net wheal area, effect of peptide (alone): 3.29 mm2
[1]; intradermal 1 mg/ml, Animal B, 1 hour
  Net wheal area, effect of peptide (alone): 7.0 mm2
[1]; intradermal 1 mg/ml, Animal C, 2 hours
  Net wheal area, effect of peptide (alone): 16.5 mm2
[1]; intradermal 10 mg/ml, Animal A, 0.5 hour
  Net wheal area, effect of peptide (alone): −1.68 mm2
[1]; intradermal 10 mg/ml, Animal B, 1 hour
  Net wheal area, effect of peptide (alone): −9.9 mm2
[1]; intradermal 10 mg/ml, Animal C, 2 hours
  Net wheal area, effect of peptide (alone): −3.0 mm2
[1]; [11]
  Mean Wheal Area ± STD, Vehicle: 60.7 ± 19.3 (n = 7) mm^2
[1]; [12]
  Mean Wheal Area ± STD, Vehicle: 52.3 ± 11.1 (n = 5) mm^2
[1]; intradermal peptide 1 mg/ml, animal a, 0.5 hour after injection
  Wheal area, saline injection (control): 65.78^a mm2
[1]; intradermal peptide 1 mg/ml, animal b, 1 hour
  Wheal area, saline injection (control): 119.2^b mm2
[1]; intradermal peptide 1 mg/ml, animal c, 2 hours
  Wheal area, saline injection (control): 77.31^c mm2
[1]; [13]
  Mean Wheal Area ± STD, Vehicle: 54.8 ± 11 (n = 5) mm^2
[1]; [14]
  Mean Wheal Area ± STD, Vehicle: 50.6 ± 7.411 (n = 5) mm^2
[1]; intradermal peptide 10 mg/ml, animal a, 0.5 hour
  Wheal area, saline injection (control): 60.81^a mm2
[1]; intradermal peptide 10 mg/ml, animal b, 1 hour
  Wheal area, saline injection (control): 102.3^b mm2
[1]; intradermal peptide 10 mg/ml, animal c, 2 hours
  Wheal area, saline injection (control): 57.81^c mm2
[1]; without compound 48/80
  effect of intradermal injection of peptide alone on the cutaneous allergic reactions: hardly any stimulatory effect; also recorded: no cutaneous allergic reaction
[3]; Table 1, peptide alone
  Secretagogue (histamine secretion following incubation of mast cell with different concentrations of each peptide): −
[5]; peptide and saline injection, without compound 48/80
  stimulatory effect of topical peptide by itself on the cutaneous allergic reactions: no stimulatory effect
[5]; topical 1 mg/ml, Animal A, 1 hour after application
  Net wheal area, effect of peptide (alone): −8.8 mm2
[5]; topical 1 mg/ml, Animal B (footnote: 1 hour after application)
  Net wheal area, effect of peptide (alone): −5.5 mm2
[5]; topical 10 mg/ml, Animal A, 1 hour after application
  Net wheal area, effect of peptide (alone): −8.3 mm2
[5]; topical 10 mg/ml, Animal B (footnote: 1 hour after application)
  Net wheal area, effect of peptide (alone): −6.0 mm2
[5]; topical peptide 1 mg/ml, animal a, skin test 1 hour after application
  Wheal area, saline injection (control): 84.64^a mm^2
[5]; topical peptide 1 mg/ml, animal b, 2 hours after application
  Wheal area, saline injection (control): 66.91^b mm^2
[5]; topical peptide 10 mg/ml, animal a, 1 hour after application
  Wheal area, saline injection (control): 85.24^a mm^2
[5]; topical peptide 10 mg/ml, animal b, 2 hours after application
  Wheal area, saline injection (control): 66.40^b mm^2
[2]; [15]
  Average Score, Erythema: 0.6
  Average Score, Lid edema: 0
  Average Score, Tearing: 0.2
  Average Score, Total score: 0.8
[2]; drug 2% followed by vehicle, no compound 48/80 (Table 19 group 2)
  Average Score, Chemosis: 0
[4]
  IC50, compound 48/80 induced histamine secretion: 400 µg/mL

## AAVALLPAVLLALLAPKNNLKEVGLY [WALL007]
[1]; [11]
  Mean Wheal Area ± STD, Vehicle: 76.5 ± 14.1 (n = 12) mm^2
[1]; [12]
  Mean Wheal Area ± STD, Vehicle: 62.4 ± 11.1 (n = 15) mm^2
[1]; [13]
  Mean Wheal Area ± STD, Vehicle: 74.5 ± 26.4 (n = 12) mm^2
[1]; [14]
  Mean Wheal Area ± STD, Vehicle: 65.9 ± 10.0 (n = 11) mm^2
[3]; Table 9, peptide alone
  Secretagogue (histamine secretion following incubation of mast cell with different concentrations of each peptide): −
[3]
  histamine secretion from mast cells on incubation with increasing concentrations of peptide alone: did not result in histamine secretion
[4]
  IC50, compound 48/80 induced histamine secretion: 230 µg/mL
